Laboratory results from US20230075856A1, “CYCLIC SULFAMIDE COMPOUNDS FOR TREATMENT OF HBV” (Assembly Biosciences, Inc., priority 2018, published 2023).
pEC50: −log10 of the molar value.

Each compound was assayed on HBV viral load production from HepAD38 cells (assay: Viral production from HepAD38 cells: viral load in supernatant by qPCR of the HBV core sequence). Conditions: 5 days incubation, qPCR of supernatant HBV DNA vs DMSO control, read-out: viral load lowering EC50 (Activity).
Format: cell-based
Procedure, shortened: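 HepAD38 cells seeded at 50,000/well in tetracycline-free medium with 2% FBS, treated with compounds (final top concentration 10 μM) for 5 days at 37 °C. Supernatant HBV DNA quantified by TaqMan qPCR of core sequence against HBV DNA standards, relative to DMSO controls; EC50 by four-parameter logistic fit.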
Work on `COC(=O)N1CCC(NC(=O)C2CC(C(=O)Nc3ccc(F)c(Cl)c3)N(C)S(=O)(=O)N2)CC1` (single isomer, unassigned) [Compound 477-ISOMER-B, methyl 4-[[5-[(3-chloro-4-fluoro-phenyl)carbamoyl]-6-methyl-1,1-dioxo-1,2,6-thiadiazinane-3-carbonyl]amino]piperidine-1-carboxylate] yielded a pEC50 of 5.00 to 7.00.
`COc1ccccc1-c1ncc(CNC(=O)C2CC(C(=O)Nc3ccc(F)c(Cl)c3)N(C)S(=O)(=O)N2)s1` (single isomer, unassigned) [Compound 987-ISOMER-B, N3-(3-chloro-4-fluoro-phenyl)-N5-[[2-(2-methoxyphenyl)thiazol-5-yl]methyl]-2-methyl-1,1-dioxo-1,2,6-thiadiazinane-3,5-dicarboxamide] gave a pEC50 of 5.00 to 7.00.

Same assay, conditions: Hepatitis B virus, HePAD38, 120 h, 5 days incubation, qPCR of supernatant HBV DNA vs DMSO control, read-out: viral load lowering EC50 (Activity)
With `CN1C(C(=O)Nc2ccc(F)c(Cl)c2)CC(C(=O)NCc2cnc(-c3ccccc3)s2)NS1(=O)=O` (single isomer, unassigned) [Compound 691-ISOMER-A, N3-(3-chloro-4-fluoro-phenyl)-2-methyl-1,1-dioxo-N5-[(2-phenylthiazol-5-yl)methyl]-1,2,6-thiadiazinane-3,5-dicarboxamide] the pEC50 was 5.00 to 7.00.
Work on `Cc1nc(Cl)sc1C(NC(=O)C1CC(C(=O)Nc2ccc(F)c(Cl)c2)N(C)S(=O)(=O)N1)c1ccccc1` (stereo not shown) [Compound 1098] yielded a pEC50 of over 7.30.
`CCn1ccc(CNC(=O)C2CC(C(=O)Nc3ccc(F)c(Cl)c3)N(C)S(=O)(=O)N2)n1` (stereo not shown) [Compound 745] gave a pEC50 of 7.00 to 7.30.
With `CN1C(C(=O)Nc2ccc(F)c(Cl)c2)CC(C(=O)NCc2cnc(C(F)(F)F)s2)NS1(=O)=O` (stereo not shown) [Compound 498] the pEC50 was 5.00 to 7.00.
Compound `CN1C(C(=O)Nc2ccc(F)c(Cl)c2)CC(C(=O)NC2CCN(C(=O)C3CC3)CC2)NS1(=O)=O` (stereo not shown) [Compound 854] has a pEC50 of over 7.30.
In the case of `CN1C(C(=O)Nc2ccc(F)c(Cl)c2)CC(C(=O)NCc2cc(-c3ccc(F)cc3)nn2C)NS1(=O)=O` (single isomer, unassigned) [1143-ISOMER-A, N3-(3-chloro-4-fluoro-phenyl)-N5-[[5-(4-fluorophenyl)-2-methyl-pyrazol-3-yl]methyl]-2-methyl-1,1-dioxo-1,2,6-thiadiazinane-3,5-dicarboxamide], the pEC50 was 5.00 to 7.00.
In the case of `Cc1nc(CNC(=O)C2CC(C(=O)Nc3ccc(F)c(Cl)c3)N(C)S(=O)(=O)N2)sc1-c1ccccc1F` (stereo not shown) [Compound 1085], the pEC50 was over 7.30.
With `CN1C(C(=O)Nc2ccc(F)c(Cl)c2)CC(C(=O)NC2CCN(C(=O)OCCN3CCCCC3)CC2)NS1(=O)=O` (stereo not shown) [Compound 963] the pEC50 was 5.00 to 7.00.
`CN1C(C(=O)Nc2ccc(F)c(C#N)c2)CC(C(=O)NCc2cnc(C(F)(F)F)s2)NS1(=O)=O` (stereo not shown) [Compound 772] showed a pEC50 of over 7.30.
For `CN1C(C(=O)Nc2ccc(F)c(Cl)c2)CC(C(=O)NC2CCN(c3ccnc(-c4ccccc4)c3)CC2)NS1(=O)=O` (stereo not shown) [Compound 1050], the pEC50 was over 7.30.
In the case of `Cc1nc(-c2ccccc2Cl)sc1CNC(=O)C1CC(C(=O)Nc2ccc(F)c(Cl)c2)N(C)S(=O)(=O)N1` (single isomer, unassigned) [1015-ISOMER-A, N3-(3-Chloro-4-fluoro-phenyl)-N5-[[2-(2-chlorophenyl)-4-methyl-thiazol-5-yl]methyl]-2-methyl-1,1-dioxo-1,2,6-thiadiazinane-3,5-dicarboxamide], the pEC50 was over 7.30.
`CC(C)OC(=O)N1CCC(NC(=O)C2CC(C(=O)Nc3ccc(F)c(Cl)c3)N(C)S(=O)(=O)N2)CC1` (stereo not shown) [Compound 766] gave a pEC50 of over 7.30.
Compound `CN1C(C(=O)Nc2ccc(F)c(Cl)c2)CC(C(=O)NCc2ncc(-c3ccc(F)cc3)s2)NS1(=O)=O` (single isomer, unassigned) [1153-ISOMER-A, N3-(3-chloro-4-fluoro-phenyl)-N5-[[5-(4-fluorophenyl)thiazol-2-yl]methyl]-2-methyl-1,1-dioxo-1,2,6-thiadiazinane-3,5-dicarboxamide] has a pEC50 of over 7.30.
Work on `CN1C(C(=O)Nc2ccc(F)c(Cl)c2)CC(C(=O)NCc2ccccc2N2CCCCC2)NS1(=O)=O` (stereo not shown) [Compound 906] yielded a pEC50 of 5.00 to 7.00.
Work on `C[C@H](NC(=O)C1CC(C(=O)Nc2ccc(F)c(C#N)c2)N(C)S(=O)(=O)N1)c1ccc(F)cc1` (stereo partly shown) [Compound 774] yielded a pEC50 of 5.00 to 7.00.
Compound `CN1C(C(=O)Nc2ccc(F)c(Cl)c2)CC(C(=O)NCc2cnc(-n3ccnn3)s2)NS1(=O)=O` (stereo not shown) [Compound 1158] has a pEC50 of over 7.30.
Compound `CN1C(C(=O)Nc2ccc(F)c(Cl)c2)CC(C(=O)NC2CCN(c3ccnc(Cl)n3)CC2)NS1(=O)=O` (stereo not shown) [Compound 1054] has a pEC50 of over 7.30.
Work on `CN1C(C(=O)Nc2ccc(F)c(Cl)c2)CC(C(=O)NCc2ccccc2-n2ccnc2)NS1(=O)=O` (single isomer, unassigned) [Compound 910-ISOMER-B, N3-(3-chloro-4-fluoro-phenyl)-N5-[(2-imidazol-1-ylphenyl)methyl]-2-methyl-1,1-dioxo-1,2,6-thiadiazinane-3,5-dicarboxamide] yielded a pEC50 of 5.00 to 7.00.
With `CN1C(C(=O)Nc2ccc(F)c(Cl)c2)CC(C(=O)NC(c2ccccc2)c2cnc(-c3ccccc3)s2)NS1(=O)=O` (single isomer, unassigned) [1067-ISOMER-A, N3-(3-chloro-4-fluoro-phenyl)-2-methyl-1,1-dioxo-N5-[phenyl-(2-phenylthiazol-5-yl)methyl]-1,2,6-thiadiazinane-3,5-dicarboxamide] the pEC50 was over 7.30.
With `Cc1nc(-c2ccc(F)cc2)sc1CNC(=O)C1CC(C(=O)Nc2ccc(F)c(Cl)c2)N(C)S(=O)(=O)N1` (stereo not shown) [Compound 1056] the pEC50 was over 7.30.
With `CN1C(C(=O)Nc2ccc(F)c(Cl)c2)CC(C(=O)NCc2cc(-c3ccc(F)cc3)nn2C)NS1(=O)=O` (stereo not shown) [Compound 1143] the pEC50 was over 7.30.
Work on `Cc1nc(-c2ccccc2F)sc1[C@H](NC(=O)C1CC(C(=O)Nc2ccc(F)c(Cl)c2)N(C)S(=O)(=O)N1)c1ccccc1` (single isomer, unassigned) [1101-ISOMER-C] yielded a pEC50 of 5.00 to 7.00.
With `COc1cccc(CNC(=O)C2CC(C(=O)Nc3ccc(F)c(Cl)c3)N(C)S(=O)(=O)N2)c1` (single isomer, unassigned) [Compound 721-ISOMER-A, N3-(3-chloro-4-fluoro-phenyl)-N5-[(3-methoxyphenyl)methyl]-2-methyl-1,1-dioxo-1,2,6-thiadiazinane-3,5-dicarboxamide] the pEC50 was over 7.30.
With `CCc1nc(CNC(=O)C2CC(C(=O)Nc3ccc(F)c(Cl)c3)N(C)S(=O)(=O)N2)cs1` (single isomer, unassigned) [Compound 742-ISOMER-A, N3-(3-chloro-4-fluoro-phenyl)-N5-[(2-ethylthiazol-4-yl)methyl]-2-methyl-1,1-dioxo-1,2,6-thiadiazinane-3,5-dicarboxamide] the pEC50 was 5.00 to 7.00.
`CN1C(C(=O)Nc2ccc(F)c(Cl)c2)CC(C(=O)NC2CCN(c3ccnc(F)c3)CC2)NS1(=O)=O` (single isomer, unassigned) [1040-ISOMER-A, N3-(3-chloro-4-fluoro-phenyl)-N5-[1-(2-fluoro-4-pyridyl)-4-piperidyl]-2-methyl-1,1-dioxo-1,2,6-thiadiazinane-3,5-dicarboxamide] gave a pEC50 of over 7.30.
`CN1C(C(=O)Nc2ccc(F)c(Cl)c2)CC(C(=O)NCc2ncc(-c3ccc(O)cc3)s2)NS1(=O)=O` (stereo not shown) [Compound 1009] showed a pEC50 of over 7.30.
`Cc1c(CNC(=O)C2CC(C(=O)Nc3ccc(F)c(C#N)c3)N(C)S(=O)(=O)N2)cnn1C` (stereo not shown) [Compound 838] was tested, and the pEC50 was 5.00 to 7.00.
`CN1C(C(=O)Nc2ccc(F)c(Cl)c2)CC(C(=O)NCc2cnc(-c3ccc(C(F)(F)F)cc3)s2)NS1(=O)=O` (stereo not shown) [Compound 915] gave a pEC50 of 5.00 to 7.00.
Work on `CN1C(C(=O)Nc2ccc(F)c(Cl)c2)CC(C(=O)NCc2ccccc2-c2cn(C)cn2)NS1(=O)=O` (stereo not shown) [Compound 823] yielded a pEC50 of over 7.30.
